# Assay results published in patent US20070179183A1 (priority 2003, published 2007).
# Target: T1, α4β1 integrin (Homo sapiens, UniProt P05556+P13612)
# T1 construct: endogenous in cells; host or cells: U-937 cells
# Test: U-937 Cell Adhesion to Human VCAM-1 (α4β1 Binding Assay)
# Assay type: cell-based
# Details: read-out: IC50 values in the α4β1 assays
# Method: Recombinant human soluble VCAM-1. (R&D Systems Ltd., UK) at 2 μg/ml in PBS was immobilized overnight onto microtiter plates. Unbound VCAM-1 was washed away and VCAM-1 coated plates were blocked with bovine serum albumin (BSA) 2.5% in PBS for 2 h at room temperature. U-937 cells were labelled with 5-carboxyfluorescein diacetate (5-CFDA) in order to detect bound cells to the wells. Test compounds were added to the wells followed by U-937 cells and the adhesion assay was performed for 1 h at 37° C. Following incubation, the wells were emptied and washed. Inhibition of binding was measured by the quantity of fluorescence bound to the plate for each of the various concentrations of test compound, as well as for controls containing no test compound, with a Cytofluor 2300 fluorescence measurement system.
# T1 sequence (P13612 34-1032): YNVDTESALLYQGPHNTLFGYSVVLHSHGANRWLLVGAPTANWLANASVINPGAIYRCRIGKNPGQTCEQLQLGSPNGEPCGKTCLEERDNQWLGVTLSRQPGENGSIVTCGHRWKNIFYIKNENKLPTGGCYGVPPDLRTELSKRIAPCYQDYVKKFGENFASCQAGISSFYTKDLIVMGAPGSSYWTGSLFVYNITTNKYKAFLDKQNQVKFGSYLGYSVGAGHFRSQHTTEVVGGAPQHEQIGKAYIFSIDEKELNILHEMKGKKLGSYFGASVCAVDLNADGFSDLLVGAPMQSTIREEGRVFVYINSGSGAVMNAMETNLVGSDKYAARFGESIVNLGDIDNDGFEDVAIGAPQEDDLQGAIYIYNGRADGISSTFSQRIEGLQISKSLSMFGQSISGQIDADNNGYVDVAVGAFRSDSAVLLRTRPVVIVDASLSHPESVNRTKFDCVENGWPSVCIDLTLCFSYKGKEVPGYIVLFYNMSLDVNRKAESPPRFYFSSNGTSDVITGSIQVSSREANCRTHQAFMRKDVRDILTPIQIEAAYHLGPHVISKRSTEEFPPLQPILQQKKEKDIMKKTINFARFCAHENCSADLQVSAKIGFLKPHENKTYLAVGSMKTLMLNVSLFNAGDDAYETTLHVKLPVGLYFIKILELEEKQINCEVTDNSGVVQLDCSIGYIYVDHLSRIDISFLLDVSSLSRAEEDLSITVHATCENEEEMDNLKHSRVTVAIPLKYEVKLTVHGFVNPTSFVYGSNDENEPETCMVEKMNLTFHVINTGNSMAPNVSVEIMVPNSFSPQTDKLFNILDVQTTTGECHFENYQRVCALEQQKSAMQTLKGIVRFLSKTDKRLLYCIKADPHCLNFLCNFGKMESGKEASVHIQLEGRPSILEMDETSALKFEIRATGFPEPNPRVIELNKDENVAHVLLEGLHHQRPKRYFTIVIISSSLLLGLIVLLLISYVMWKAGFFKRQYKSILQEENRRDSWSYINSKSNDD
# T1 sequence (P05556 21-798): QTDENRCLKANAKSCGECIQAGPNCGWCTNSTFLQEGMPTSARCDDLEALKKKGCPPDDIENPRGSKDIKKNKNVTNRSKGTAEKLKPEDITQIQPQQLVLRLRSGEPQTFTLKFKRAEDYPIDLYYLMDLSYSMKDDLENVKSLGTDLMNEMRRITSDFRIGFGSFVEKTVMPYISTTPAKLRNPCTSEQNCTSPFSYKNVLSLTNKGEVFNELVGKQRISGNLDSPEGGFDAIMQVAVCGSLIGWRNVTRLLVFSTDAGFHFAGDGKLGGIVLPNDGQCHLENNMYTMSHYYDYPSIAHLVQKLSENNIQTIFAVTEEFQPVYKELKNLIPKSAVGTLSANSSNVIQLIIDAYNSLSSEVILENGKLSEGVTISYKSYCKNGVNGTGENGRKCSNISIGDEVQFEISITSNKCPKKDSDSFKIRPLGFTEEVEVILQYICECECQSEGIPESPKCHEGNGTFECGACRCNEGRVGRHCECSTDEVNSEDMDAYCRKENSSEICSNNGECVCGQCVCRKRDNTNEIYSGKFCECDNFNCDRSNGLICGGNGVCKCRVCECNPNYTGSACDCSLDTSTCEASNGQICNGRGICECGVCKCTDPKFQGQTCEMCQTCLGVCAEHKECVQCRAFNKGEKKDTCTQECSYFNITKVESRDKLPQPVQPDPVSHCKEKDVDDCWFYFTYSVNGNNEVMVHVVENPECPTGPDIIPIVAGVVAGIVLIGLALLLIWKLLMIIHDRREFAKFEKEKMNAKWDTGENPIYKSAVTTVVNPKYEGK
row,SMILES,IC50 [nM]
1,"CC(C)N(C1CCCC1)S(=O)(=O)N[C@@H](Cc1ccc(NC(=O)c2c(Cl)cncc2Cl)cc1)C(=O)O [Example 71, (2S)-2-({[cyclopentyl(isopropyl)amino]sulfonyl}amino)-3-{4-[(3,5-dichloroisonicotinoyl)amino]phenyl}propionic acid]",< 100
2,O=C(Nc1ccc(C[C@H](NS(=O)(=O)Nc2ccccc2S(=O)(=O)c2ccccc2)C(=O)O)cc1)c1c(Cl)cncc1Cl [Example 81],< 100
3,"CC(C)CN([C@H](C)c1ccccc1)S(=O)(=O)N[C@@H](Cc1ccc(NC(=O)c2c(Cl)cncc2Cl)cc1)C(=O)O [Example 77, (2S)-3-{4-[(3,5-dichloroisonicotinoyl)amino]phenyl}-2-[({isobutyl[(1R)-1-phenylethyl]amino}sulfonyl)amino]propionic acid]",< 100
4,"O=C(Nc1ccc(C[C@H](NS(=O)(=O)NCc2ccccc2)C(=O)O)cc1)c1c(Cl)cccc1Cl [Example 3, (2S)-2-(N-benzylaminosulfonilamino)-3-[4-(2,6dichlorobenzoylamino)phenyl]propionic acid]",< 100
